Laboratory results as given in ChEMBL document CHEMBL4627299, “Computational discovery and biological evaluation of novel inhibitors targeting histone-lysine N-methyltransferase SET7” (Bioorg Med Chem, 2020).
pIC50: −log10 of the molar value. Calls of active or inactive are those of the source. The calls are words filed in the database; no cut-off is given here.

Columns and labels:
[1] = target: T1, Histone-lysine N-methyltransferase SETD7 (Homo sapiens) (UniProt Q8WTS6); test: Inhibition of human SET7 overexpressed in Escherichia coli BL21 (DE3) cells at 25 uM preincubated for 15 mins followed by addition of SAM as substrate and biotinylated Histone H3 (1-50) peptide measured after 30 mins by AlphaLISA assay relative to control
T1 sequence (whole entry): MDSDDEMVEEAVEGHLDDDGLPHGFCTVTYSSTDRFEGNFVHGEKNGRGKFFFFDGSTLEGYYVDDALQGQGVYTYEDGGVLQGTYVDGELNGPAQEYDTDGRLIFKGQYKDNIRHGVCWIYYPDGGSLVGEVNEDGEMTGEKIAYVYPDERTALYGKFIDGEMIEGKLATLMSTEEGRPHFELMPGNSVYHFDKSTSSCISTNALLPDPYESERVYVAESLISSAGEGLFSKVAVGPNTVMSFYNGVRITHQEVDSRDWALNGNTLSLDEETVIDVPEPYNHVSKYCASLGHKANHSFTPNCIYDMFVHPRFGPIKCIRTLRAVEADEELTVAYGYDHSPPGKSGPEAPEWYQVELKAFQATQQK

[2] = target: T2, Histone-lysine N-methyltransferase SETD7 (Homo sapiens, UniProt Q8WTS6); test: Inhibition of human SET7 overexpressed in Escherichia coli BL21 (DE3) cells preincubated for 15 mins followed by addition of SAM as substrate and biotinylated Histone H3 (1-50) peptide measured after 30 mins by AlphaLISA assay relative to control
T2 sequence (Q8WTS6 whole entry): T1 sequence (whole entry)

[3] = target: T1, Histone-lysine N-methyltransferase SETD7 (Homo sapiens); test: Inhibition of human SET7 overexpressed in Escherichia coli BL21 (DE3) cells at 50 uM preincubated for 15 mins followed by addition of SAM as substrate and biotinylated Histone H3 (1-50) peptide measured after 30 mins by AlphaLISA assay relative to control
[4] = target: T1, Histone-lysine N-methyltransferase SETD7 (Homo sapiens); test: Inhibition of human SET7 overexpressed in Escherichia coli BL21 (DE3) cells at 12.5 uM preincubated for 15 mins followed by addition of SAM as substrate and biotinylated Histone H3 (1-50) peptide measured after 30 mins by AlphaLISA assay relative to control
[5] = target: Histone-lysine N-methyltransferase 2A (Homo sapiens, UniProt Q03164); test: Inhibition of MLL1 (unknown origin) preincubated for 15 mins followed by addition of substrate measured after 1 hr by AlphaLISA assay
Histone-lysine N-methyltransferase 2A, sequence (Q03164 1-2718 limits assumed): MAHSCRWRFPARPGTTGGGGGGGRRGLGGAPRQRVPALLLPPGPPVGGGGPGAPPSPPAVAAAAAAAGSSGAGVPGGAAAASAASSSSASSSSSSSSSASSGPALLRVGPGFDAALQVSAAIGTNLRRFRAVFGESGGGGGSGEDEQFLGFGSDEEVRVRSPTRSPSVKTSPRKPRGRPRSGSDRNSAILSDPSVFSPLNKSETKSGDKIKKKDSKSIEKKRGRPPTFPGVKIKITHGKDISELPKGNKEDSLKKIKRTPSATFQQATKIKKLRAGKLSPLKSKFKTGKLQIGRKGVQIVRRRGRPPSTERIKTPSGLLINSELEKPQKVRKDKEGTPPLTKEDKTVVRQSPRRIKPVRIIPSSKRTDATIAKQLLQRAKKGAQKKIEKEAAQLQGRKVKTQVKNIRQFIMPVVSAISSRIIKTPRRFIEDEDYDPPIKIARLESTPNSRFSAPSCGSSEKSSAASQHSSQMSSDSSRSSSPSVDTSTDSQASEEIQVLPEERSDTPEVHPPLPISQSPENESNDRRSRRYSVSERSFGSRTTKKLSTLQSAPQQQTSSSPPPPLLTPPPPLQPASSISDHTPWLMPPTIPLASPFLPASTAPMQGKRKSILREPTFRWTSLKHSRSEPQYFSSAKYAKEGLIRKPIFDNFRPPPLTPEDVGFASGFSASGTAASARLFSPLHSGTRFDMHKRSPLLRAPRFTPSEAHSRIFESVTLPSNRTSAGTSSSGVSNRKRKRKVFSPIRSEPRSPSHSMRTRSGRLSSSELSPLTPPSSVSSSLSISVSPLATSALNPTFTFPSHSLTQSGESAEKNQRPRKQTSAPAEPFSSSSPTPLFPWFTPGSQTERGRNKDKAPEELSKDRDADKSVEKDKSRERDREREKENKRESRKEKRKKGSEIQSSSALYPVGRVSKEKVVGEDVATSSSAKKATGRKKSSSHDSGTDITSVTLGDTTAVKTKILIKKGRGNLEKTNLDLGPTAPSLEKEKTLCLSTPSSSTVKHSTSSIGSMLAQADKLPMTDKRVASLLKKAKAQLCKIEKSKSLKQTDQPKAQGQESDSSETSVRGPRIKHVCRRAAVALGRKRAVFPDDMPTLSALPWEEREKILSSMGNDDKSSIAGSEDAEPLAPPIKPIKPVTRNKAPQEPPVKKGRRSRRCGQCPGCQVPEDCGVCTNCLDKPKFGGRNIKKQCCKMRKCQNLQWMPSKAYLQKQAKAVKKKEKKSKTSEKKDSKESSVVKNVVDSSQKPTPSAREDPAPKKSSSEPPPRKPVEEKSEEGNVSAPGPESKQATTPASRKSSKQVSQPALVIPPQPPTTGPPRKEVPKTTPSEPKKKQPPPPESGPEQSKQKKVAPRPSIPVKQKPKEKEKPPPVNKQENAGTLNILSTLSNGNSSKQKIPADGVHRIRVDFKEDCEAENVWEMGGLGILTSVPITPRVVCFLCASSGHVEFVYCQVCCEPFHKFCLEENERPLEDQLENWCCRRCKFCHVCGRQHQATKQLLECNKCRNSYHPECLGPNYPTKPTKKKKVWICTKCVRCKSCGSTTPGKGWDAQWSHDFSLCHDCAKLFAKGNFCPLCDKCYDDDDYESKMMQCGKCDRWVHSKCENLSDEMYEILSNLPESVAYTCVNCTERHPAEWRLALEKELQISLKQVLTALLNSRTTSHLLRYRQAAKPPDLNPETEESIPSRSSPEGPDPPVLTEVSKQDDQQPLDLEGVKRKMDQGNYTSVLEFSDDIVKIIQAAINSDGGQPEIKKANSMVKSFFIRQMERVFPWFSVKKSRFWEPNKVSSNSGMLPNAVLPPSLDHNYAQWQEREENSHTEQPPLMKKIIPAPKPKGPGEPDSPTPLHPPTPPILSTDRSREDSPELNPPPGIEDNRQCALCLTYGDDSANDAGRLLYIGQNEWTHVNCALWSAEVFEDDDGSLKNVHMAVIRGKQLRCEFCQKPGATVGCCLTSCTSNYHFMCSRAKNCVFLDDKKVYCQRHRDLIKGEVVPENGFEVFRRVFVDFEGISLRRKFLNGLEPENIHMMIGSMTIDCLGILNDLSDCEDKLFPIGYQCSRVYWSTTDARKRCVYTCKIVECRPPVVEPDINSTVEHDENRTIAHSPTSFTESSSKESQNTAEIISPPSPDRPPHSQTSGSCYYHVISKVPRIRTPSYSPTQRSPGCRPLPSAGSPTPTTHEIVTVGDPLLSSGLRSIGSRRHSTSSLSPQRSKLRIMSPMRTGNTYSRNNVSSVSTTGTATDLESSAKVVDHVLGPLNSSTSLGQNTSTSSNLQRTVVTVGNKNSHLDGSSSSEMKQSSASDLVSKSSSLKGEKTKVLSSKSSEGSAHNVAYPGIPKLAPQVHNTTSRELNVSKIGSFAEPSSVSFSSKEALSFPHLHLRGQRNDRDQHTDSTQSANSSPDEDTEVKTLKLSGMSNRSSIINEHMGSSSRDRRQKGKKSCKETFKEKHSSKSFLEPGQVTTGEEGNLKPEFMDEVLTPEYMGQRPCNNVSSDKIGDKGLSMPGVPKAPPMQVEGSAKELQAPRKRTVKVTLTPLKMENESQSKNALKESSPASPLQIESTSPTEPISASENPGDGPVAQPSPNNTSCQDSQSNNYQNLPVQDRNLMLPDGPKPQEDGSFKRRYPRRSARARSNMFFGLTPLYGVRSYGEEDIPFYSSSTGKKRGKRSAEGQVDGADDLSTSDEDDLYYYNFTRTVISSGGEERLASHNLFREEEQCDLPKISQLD
Histone-lysine N-methyltransferase 2A, sequence (Q03164 2719-3969 limits assumed): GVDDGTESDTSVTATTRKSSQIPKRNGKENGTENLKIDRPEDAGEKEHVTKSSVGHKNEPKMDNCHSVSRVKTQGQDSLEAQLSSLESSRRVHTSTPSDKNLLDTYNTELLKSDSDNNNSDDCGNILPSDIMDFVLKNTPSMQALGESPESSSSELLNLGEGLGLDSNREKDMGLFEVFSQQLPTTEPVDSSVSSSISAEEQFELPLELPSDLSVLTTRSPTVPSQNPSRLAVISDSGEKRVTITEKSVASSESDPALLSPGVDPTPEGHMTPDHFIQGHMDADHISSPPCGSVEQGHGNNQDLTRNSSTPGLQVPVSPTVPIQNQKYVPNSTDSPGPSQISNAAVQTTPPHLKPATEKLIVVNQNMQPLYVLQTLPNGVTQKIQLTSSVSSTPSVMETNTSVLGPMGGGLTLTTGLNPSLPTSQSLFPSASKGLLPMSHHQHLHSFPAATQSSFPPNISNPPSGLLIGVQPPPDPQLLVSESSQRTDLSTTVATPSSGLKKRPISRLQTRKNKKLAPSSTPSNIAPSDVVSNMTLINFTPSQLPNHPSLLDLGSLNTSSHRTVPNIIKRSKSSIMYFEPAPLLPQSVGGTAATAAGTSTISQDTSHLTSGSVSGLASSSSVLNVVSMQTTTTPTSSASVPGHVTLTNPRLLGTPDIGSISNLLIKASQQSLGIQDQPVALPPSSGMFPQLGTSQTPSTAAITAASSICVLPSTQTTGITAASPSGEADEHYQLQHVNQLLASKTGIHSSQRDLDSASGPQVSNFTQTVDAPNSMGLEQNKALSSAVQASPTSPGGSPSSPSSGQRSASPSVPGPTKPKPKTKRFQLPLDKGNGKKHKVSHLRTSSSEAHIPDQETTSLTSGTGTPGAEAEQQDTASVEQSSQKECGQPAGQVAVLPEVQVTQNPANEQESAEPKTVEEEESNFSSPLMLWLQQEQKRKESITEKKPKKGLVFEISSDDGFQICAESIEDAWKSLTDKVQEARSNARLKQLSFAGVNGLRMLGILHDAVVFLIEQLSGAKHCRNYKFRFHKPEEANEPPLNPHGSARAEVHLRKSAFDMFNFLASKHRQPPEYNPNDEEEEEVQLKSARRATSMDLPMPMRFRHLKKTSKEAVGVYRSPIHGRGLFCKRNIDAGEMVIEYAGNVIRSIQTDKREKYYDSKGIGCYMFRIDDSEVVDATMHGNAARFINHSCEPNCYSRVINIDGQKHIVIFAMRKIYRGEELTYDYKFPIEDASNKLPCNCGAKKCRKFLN

A549 = test: Antiproliferation activity against human A549 cells assessed as reduction in cell viability measured by Cell-titer-Glo assay; assay type: functional, cell-based
MV4-11 = test: Antiproliferation activity against human MV4-11 cells assessed as reduction in cell viability measured by Cell-titer-Glo assay; assay type: functional, cell-based
MDA-MB-231 = test: Antiproliferation activity against human MDA-MB-231 cells assessed as reduction in cell viability measured by Cell-titer-Glo assay; assay type: functional, cell-based
[6] = target: T3, Histone-lysine N-methyltransferase NSD2 (Homo sapiens, UniProt O96028); test: Inhibition of NSD2 (unknown origin) preincubated for 15 mins followed by addition of [3H]-SAM as substrate and peptide solution after 240 mins cold SAM was added measured by radioisotope assay
T3 sequence (O96028 whole entry): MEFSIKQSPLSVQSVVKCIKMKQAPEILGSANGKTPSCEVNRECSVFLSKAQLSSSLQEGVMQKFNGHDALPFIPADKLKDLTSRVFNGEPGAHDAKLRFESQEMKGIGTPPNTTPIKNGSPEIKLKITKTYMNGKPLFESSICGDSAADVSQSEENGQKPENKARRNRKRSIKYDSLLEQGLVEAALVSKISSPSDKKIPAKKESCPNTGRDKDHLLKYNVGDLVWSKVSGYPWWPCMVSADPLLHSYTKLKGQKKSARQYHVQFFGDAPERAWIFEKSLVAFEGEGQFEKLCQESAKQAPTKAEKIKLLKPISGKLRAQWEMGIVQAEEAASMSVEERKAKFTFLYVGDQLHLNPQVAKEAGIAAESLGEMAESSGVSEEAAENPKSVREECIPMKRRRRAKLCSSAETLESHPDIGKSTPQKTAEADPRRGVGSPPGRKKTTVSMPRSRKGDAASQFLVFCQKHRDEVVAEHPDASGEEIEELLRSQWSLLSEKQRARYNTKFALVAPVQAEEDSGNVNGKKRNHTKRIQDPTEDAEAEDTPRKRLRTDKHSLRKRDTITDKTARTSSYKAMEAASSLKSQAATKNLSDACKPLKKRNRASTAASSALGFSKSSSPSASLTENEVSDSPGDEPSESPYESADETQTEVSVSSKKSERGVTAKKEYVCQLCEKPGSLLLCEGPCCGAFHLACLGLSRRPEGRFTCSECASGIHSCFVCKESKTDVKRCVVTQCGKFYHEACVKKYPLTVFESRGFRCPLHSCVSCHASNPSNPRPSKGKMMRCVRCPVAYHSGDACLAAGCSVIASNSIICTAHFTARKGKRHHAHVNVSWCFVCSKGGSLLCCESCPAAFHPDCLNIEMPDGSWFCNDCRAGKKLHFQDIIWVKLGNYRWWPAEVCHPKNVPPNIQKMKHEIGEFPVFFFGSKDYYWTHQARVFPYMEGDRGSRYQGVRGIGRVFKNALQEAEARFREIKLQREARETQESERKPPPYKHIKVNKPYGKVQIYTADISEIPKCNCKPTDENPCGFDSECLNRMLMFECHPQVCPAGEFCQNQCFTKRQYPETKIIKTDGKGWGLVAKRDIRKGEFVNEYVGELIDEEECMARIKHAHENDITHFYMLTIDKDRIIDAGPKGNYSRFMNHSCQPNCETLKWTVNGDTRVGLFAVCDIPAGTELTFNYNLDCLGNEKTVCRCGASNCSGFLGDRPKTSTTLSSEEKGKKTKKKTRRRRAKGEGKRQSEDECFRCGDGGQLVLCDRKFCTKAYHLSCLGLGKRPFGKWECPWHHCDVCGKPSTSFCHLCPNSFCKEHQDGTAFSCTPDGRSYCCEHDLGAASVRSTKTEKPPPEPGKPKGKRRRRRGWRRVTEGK

[7] = target: T4, Histone-lysine N-methyltransferase SMYD3 (Homo sapiens, UniProt Q9H7B4); test: Inhibition of SMYD3 (unknown origin) preincubated for 15 mins followed by addition of [3H]-SAM as substrate and peptide solution after 240 mins cold SAM was added measured after 1 hr by radioisotope assay
T4 sequence (Q9H7B4 whole entry): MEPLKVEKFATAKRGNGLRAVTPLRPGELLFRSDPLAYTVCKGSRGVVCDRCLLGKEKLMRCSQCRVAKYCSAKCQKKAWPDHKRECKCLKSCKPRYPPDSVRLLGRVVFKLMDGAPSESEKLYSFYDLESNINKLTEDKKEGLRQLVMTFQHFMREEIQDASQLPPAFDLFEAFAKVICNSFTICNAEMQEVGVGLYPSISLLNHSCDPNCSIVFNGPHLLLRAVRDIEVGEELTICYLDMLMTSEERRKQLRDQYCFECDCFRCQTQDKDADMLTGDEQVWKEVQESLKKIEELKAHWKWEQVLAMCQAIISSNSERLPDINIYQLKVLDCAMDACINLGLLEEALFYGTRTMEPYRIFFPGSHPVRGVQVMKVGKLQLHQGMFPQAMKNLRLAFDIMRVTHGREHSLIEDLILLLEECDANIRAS

[8] = target: T5, Histone-lysine N-methyltransferase EZH1 (Homo sapiens, UniProt Q92800); test: Inhibition of Ezh1 (unknown origin) preincubated for 15 mins followed by addition of substrate measured after 1 hr by AlphaLISA assay
T5 sequence (Q92800 whole entry): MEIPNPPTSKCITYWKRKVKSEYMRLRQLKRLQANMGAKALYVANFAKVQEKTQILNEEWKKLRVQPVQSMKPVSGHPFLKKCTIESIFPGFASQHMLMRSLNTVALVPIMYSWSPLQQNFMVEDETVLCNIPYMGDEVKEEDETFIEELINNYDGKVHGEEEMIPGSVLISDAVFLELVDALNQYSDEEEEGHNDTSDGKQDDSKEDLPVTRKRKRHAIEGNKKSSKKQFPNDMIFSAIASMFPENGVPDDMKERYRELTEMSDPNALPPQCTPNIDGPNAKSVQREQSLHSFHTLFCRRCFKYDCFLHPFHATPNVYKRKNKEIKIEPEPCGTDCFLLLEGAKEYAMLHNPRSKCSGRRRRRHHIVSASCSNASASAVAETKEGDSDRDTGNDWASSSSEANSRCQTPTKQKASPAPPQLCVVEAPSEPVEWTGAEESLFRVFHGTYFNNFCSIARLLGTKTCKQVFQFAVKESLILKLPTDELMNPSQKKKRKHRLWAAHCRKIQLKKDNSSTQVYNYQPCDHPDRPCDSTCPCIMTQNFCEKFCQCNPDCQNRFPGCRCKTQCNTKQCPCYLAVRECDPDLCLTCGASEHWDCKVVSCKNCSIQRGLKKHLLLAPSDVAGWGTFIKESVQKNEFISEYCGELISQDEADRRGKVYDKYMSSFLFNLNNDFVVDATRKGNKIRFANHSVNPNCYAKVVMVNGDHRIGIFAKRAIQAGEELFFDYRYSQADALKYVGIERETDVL

Homo sapiens = species on record: Homo sapiens; test: Antiproliferation activity against human UMCHOR1 cells assessed as reduction in cell viability measured by Cell-titer-Glo assay; assay type: functional, cell-based
HeLa = test: Antiproliferation activity against human HeLa cells assessed as reduction in cell viability measured by Cell-titer-Glo assay; assay type: functional, cell-based
MCF7 = test: Antiproliferation activity against human MCF7 cells assessed as reduction in cell viability measured by Cell-titer-Glo assay; assay type: functional, cell-based

| Compound | inhibition [1] [%] | pIC50 [2] | inhibition [3] [%] | inhibition [4] [%] | further results |
| --- | --- | --- | --- | --- | --- |
| Cc1oncc1C(=O)Nc1ccc(C(F)(F)F)cc1 | 4 |  |  |  |  |
| Cc1cnc(NC(=O)C2=C(O)c3ccccc3S(=O)(=O)N2C)s1 | 29 |  | 23 | 18 |  |
| Cc1cc([N+](=O)[O-])ccc1NS(=O)(=O)c1cc(Cl)ccc1Cl | 26 |  | 26 | 17 |  |
| CCN1CCCC1CNC(=O)c1cc(S(=O)(=O)CC)c(N)cc1OC (centres undefined) | 14 |  | 3 | 14 |  |
| CC(C)=CC[C@@H](O)C1=CC(=O)c2c(O)ccc(O)c2C1=O [SHIKONIN] | 72 | 4.67 | 90 | 50 |  |
| C=CC(C)(C)c1cc(/C=C/C(=O)c2ccc(O)cc2)c(OC)cc1O | 28 |  | 39 | 17 |  |
| COC(=O)[C@H](Cc1ccccc1)NC(=O)[C@@H](N)CC(=O)O | 32 |  | 10 | 17 |  |
| O=c1cc(-c2ccc(O)c(O)c2)oc2cc(O)cc(O)c12 [LUTEOLIN] |  | 5.22 |  |  |  |
| N[C@@H](CC(=O)N1CCn2c(nnc2C(F)(F)F)C1)Cc1cc(F)c(F)cc1F | 6 |  |  |  |  |
| O=c1c(O)c(-c2ccc(O)cc2)oc2cc(O)cc(O)c12 [KAEMPFEROL] |  | < 3.70 |  |  |  |
| CC(C)=CCC1=C(O)C(=O)c2ccccc2C1=O | 4 |  |  | 3 |  |
| CC(C)C[C@H](NC(=O)[C@H](Cc1ccccc1)NC(=O)c1cnccn1)B(O)O | 19 |  | 24 | 18 |  |
| CCn1cc(C(=O)O)c(=O)c2cc(F)c(N3CCNC(C)C3)c(F)c21 (centres undefined) | 23 |  | 14 | 19 |  |
| O=C(N/N=C/c1ccc([N+](=O)[O-])o1)c1ccc(O)cc1 | 18 |  | 7 | 8 |  |
| O=C(Nc1c(Cl)cncc1Cl)c1ccc(OC(F)F)c(OCC2CC2)c1 | 19 |  | 23 | 27 |  |

Further lines, with some results ahead:

| inhibition [1] [%] | pIC50 [2] | inhibition [3] [%] | inhibition [4] [%] | Compound | further results |
| --- | --- | --- | --- | --- | --- |
| 62 | 5.22 | 87 | 40 | O=c1c(O)c(-c2ccc(O)cc2O)oc2cc(O)cc(O)c12 [MORIN] |  |
| 6 |  | 14 | 5 | O=c1c(-c2ccc(O)cc2)coc2cc(O)ccc12 |  |
| 10 |  | 4 | 19 | COc1c(O)cc(O)c2c(=O)cc(-c3ccccc3)oc12 |  |
|  | < 3.70 |  |  | O=C1C[C@@H](c2ccc(O)c(O)c2)Oc2cc(O)cc(O)c21 [ERIODICTYOL] |  |
| 11 |  | 18 | 9 | COc1cc(O)c(CC=C(C)C)c(O)c1C(=O)/C=C/c1ccc(O)cc1 |  |
|  | < 3.70 |  |  | COc1ccc(-c2oc3cc(O)cc(O)c3c(=O)c2O)cc1 [KAEMPFERIDE] |  |
|  | < 3.70 |  |  | O=c1c(O)c(-c2ccccc2)oc2cc(O)cc(O)c12 [GALANGIN] |  |
|  | 5.71 |  |  | O=c1cc(-c2ccc(O)cc2)oc2cc(O)c(O)c(O)c12 [SCUTELLAREIN] | pIC50 [5]: 5.53; Activity (A549): inactive; pIC50 (MV4-11): 4.57; Activity (MDA-MB-231): inactive; pIC50 [6]: 5.58; pIC50 [7]: 4.74; pIC50 [8]: 5.06; Activity (Homo sapiens): inactive; Activity (HeLa): inactive; Activity (MCF7): inactive |
